Patent publication EP1724268A1, “COMPOUND HAVING TGF-BETA INHIBITORY ACTIVITY AND PHARMACEUTICAL COMPOSITION CONTAINING SAME” (KIRIN BEER KABUSHIKI KAISHA, priority 2004, dated 2005)

Columns and labels:
[1] = tested on: TGFβ signal; assay: TGFβ signal inhibitory activity, (SBE)4-Luc reporter in A549 cells (Test Examples 1A and 1B); format: cell-based, human; conditions: Homo sapiens, A549, TGFβ-1 2 ng/ml, 4 hr, Table 1A, read-out: TGFβ inhibition rate, %; for inhibition at 3 µM: test compound 3 µM; for inhibition at 10 µM: test compound 10 µM
How it was run: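 Compounds at 3 µM and 10 µM (some 1 µM) were added with 2 ng/ml TGFβ-1 to A549 cells stably expressing an SBE-driven luciferase, then cultured 4 hr. Chemiluminescent luciferase signal gave % inhibition versus TGFβ-alone and no-TGFβ controls.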

[2] = tested on: A549 cells; assay: Cell growth inhibitory activity using A549 cells (Test Example 6); format: cell-based, Human; conditions: for inhibition at 30 µM: Homo sapiens, A549, compound 30 µM, 5% serum, 40 hr, counting kit-8, read-out: Cell growth inhibition rate (%); for inhibitory activity against cell growth or BMP4 signals: as compared with Example 261 or Example 269 described in WO 03/00660; for inhibitory activity against cell growth of A549 cells: as compared with Example 274 described in WO 03/00660
Experimental: Human lung cancer epithelial cells (A549) (available from ATCC) were suspended to a concentration of 3 × 10^4/ml in a DMEM/F12 medium containing 10%FCS, and the suspension was inoculated in 100 µl portions in wells of a 96-well plate. On the following day, a stock solution of the test compound which had been adjusted to 10 mM with DMSO was adjusted with a serum-free DMEM/F12 medium to a dose (60 µM) which was twice the evaluation concentration. After removing the medium inoculated in the 96 wells on the previous day, the solution was added in 50 µl portions to the plate. Next, a DMEM/F12 medium containing 10% serum was added in 50 µl portions to the wells, followed by culturing at 37°C for 40 hr. The final concentration of the serum and the concentration of the evaluation compound were 5% and 30 µM, respectively. The compounds according to the present invention synthesized in the working example were used as the test compound. […]
After 40 hr, the culture was removed, and 100 µl of a solution prepared by diluting counting kit-8 (purchased from Dojindo) with a serum-free F12 medium by 10 times was added, followed by culturing at 37°C for 20 to 30 min. After the confirmation of suitable color development, the absorbance at 450 nm was measured with ARVO (purchased from Wallach Bethold Japan). The cell growth inhibition in the test compound added wells were determined by presuming the absorbance value in the test compound-free wells to be 0% and the absorbance value in the cell-free wells to be 100%.

[3] = tested on: BMP4 signal; assay: BMP signal inhibitory activity, p(GCCG)12-Luc reporter in HepG2 cells (Test Example 7); format: cell-based, human; conditions: for Selectivity for BMP (times): Inhibitory activity against BMP4 signal (IC50)/Inhibitory activity against TGFβ signal (IC50), HepG2 reporter cells, BMP4 20 ng/ml, TGFβ-1 2 ng/ml, 4 hr; for inhibitory activity against BMP4 signals: as compared with Example 274 described in WO 03/00660
Description: The inhibitory activity of the compounds according to the present invention against BMP signals was studied using a cell line through which TGFb and BMP signals can be simultaneously observed. Specifically, the cell lines capable of detecting the two signal was generated by transfecting reporter plasmids for detection of TGFb and BMP signals into a human hepatocarcinoma cell line HepG2(available from ATCC) and was used as evaluation cells. For detection of TGF-beta signal, the plasmid having four tandem binding sequences of Smad2/3, TGF-beta signal transducers, to the upstream of a luciferases gene were used as a reporter plasmid (p(SBE)4-Luc/hygro). For detection of BMP signal, the plasmid having twelve tandem binding sequences of Smadl/5/8, BMP signal transducers, to the upstream of a luciferases gene were used as a reporter plasmid (p(GCCG)12-Luc/neo), according to the method described in Mol Biol Cell. 2000 11(2): 555-65. The test compound and TGFβ-1 (2 ng/ml) or BMP4 (20 ng/ml) were added to the cells, and the mixture was cultured for 4 hr. The compounds according to the present invention synthesized in the working example were used as the test compound. […] After the culture, the luciferase activity of the cells was measured by chemiluminescence (Steady Glo (trademark) luciferase assay system, available from Promega). Likewise, the luciferase activity was measured as control for the culture of cells with only TGFβ or BMP4 added thereto and the culture of cells with the addition of none of TGFβ, BMP4 and the test compound. The inhibitory activity IC50 of the compounds against TGFβ and BMP4 was calculated based on the results of measurement, and the kinase selectivity for BMP4 was determined by the following method. Kinase selectivity for BMP4 (times) = Inhibitory activity against BMP4 signal (IC50)/Inhibitory activity against TGFβ signal (IC50)

Structure (SMILES)	inhibition at 3 µM [1] [%]	inhibition at 10 µM [1] [%]	inhibition at 30 µM [2] [%]	inhibitory activity against cell growth or BMP4 signals [2]	Selectivity for BMP (times) [3] [times]	inhibitory activity against cell growth of A549 cells [2]	inhibitory activity against BMP4 signals [3]
CCc1ccc(Oc2ccnc3ccc(O)cc23)c(-c2ccccn2)n1 [Compound 184, 4-(6-Ethyl-[2,2']bipyridinyl-3-yloxy)-quinolin-6-ol]	100	100	8	reduced inhibitory activity	> 428	–	–
CCc1ccc(Oc2ccnc3ccc(OS(C)(=O)=O)cc23)c(-c2ccccn2)n1 [Compound 187, 4-(6-Ethyl-[2,2']bipyridinyl-3-yloxy)-quinolin-6-yl methanesulfonate]	100	100	0	reduced inhibitory activity	72	–	–
CCc1ccc(Oc2ccnc3ccc(OCCO)cc23)c(-c2ncccn2)n1 [Compound 192, 2-[4-(6-Ethyl-2-pyrimidin-2-yl-pyridin-3-yloxy)-quinolin-6-yloxy]-ethanol]	97	100	3	–	> 176	reduced inhibitory activity	reduced inhibitory activity
CCc1ccc(Oc2ccnc3cc(C(N)=O)c(O)cc23)c(-c2ncccn2)n1 [Compound 194, 4-(6-Ethyl-2-pyrimidin-2-yl-pyridin-3-yloxy)-6-hydroxy-quinoline-7-carboxylic acid amide]	60	–	-15	–	51	reduced inhibitory activity	reduced inhibitory activity
Cc1cc(Oc2ccnc3ccc(OCCO)cc23)c(-c2ncccn2)nc1C [Compound 200, 2-[4-(5,6-Dimethyl-2-pyrimidin-2-yl-pyridin-3-yloxy)-quinolin-6-yloxy]-ethanol]	85	–	0	–	75	reduced inhibitory activity	reduced inhibitory activity
Cc1ccc(Oc2ccnc3ccc(O)cc23)c(-c2ncccn2)n1 [Compound 201, 4-(6-Methyl-2-pyrimidin-2-yl-pyridin-3-yloxy)-quinolin-6-ol]	82	–	2	–	–	reduced inhibitory activity	reduced inhibitory activity
Cc1ccc(Oc2ccnc3ccc(OCCO)cc23)c(-c2ncccn2)n1 [Compound 202, 2-[4-(6-Methyl-2-pyrimidin-2-yl-pyridin-3-yloxy)-quinolin-6-yloxy]-ethanol]	86	–	8	–	21.4	reduced inhibitory activity	reduced inhibitory activity
CCc1ccc(Oc2ccnc3ccc(OCCN)cc23)c(-c2ncccn2)n1 [Compound 204, 2-[4-(6-Ethyl-2-pyrimidin-2-yl-pyridin-3-yloxy)-quinolin-6-yloxy]-ethylamine]	84	–	-9	–	–	reduced inhibitory activity	reduced inhibitory activity
CCc1ccc(Oc2ccnc3ccc(OCCOC(C)=O)cc23)c(-c2ncccn2)n1 [Compound 206, 2-[4-(6-Ethyl-2-pyrimidin-2-yl-pyridin-3-yloxy)-quinolin-6-yloxy]-ethyl acetate]	89	–	-1	–	–	reduced inhibitory activity	reduced inhibitory activity
